Assay: solvent given as SMILES

Cn1c(/C=C/c2ccc(/C=C/c3nc4ccccc4[nH]3)cc2)[n+](C)c2ccccc21
fluorescence lifetime (in C1CCOC1): 1.43 ns
fluorescence lifetime (in CC#N): 1.16 ns
fluorescence lifetime (in CC(C)=O): 1.15 ns
fluorescence lifetime (in CN(C)C=O): 1.11 ns
fluorescence lifetime (in CO): 0.773 ns
fluorescence lifetime (in CS(C)=O): 1.22 ns
fluorescence lifetime (in O): 0.42 ns

CC(C)(C)NC(=O)c1ccc2ccc3cccc4ccc1c2c34
fluorescence lifetime (in ClC(Cl)Cl): 7.55 ns

COc1c2ccccc2c(OC)c2c1c1cccc(OC)c1n2C
fluorescence lifetime (in C1CCCCC1): 21.8 ns
fluorescence lifetime (in CC#N): 26.7 ns
fluorescence lifetime (in CO): 25.2 ns
fluorescence lifetime (in ClCCl): 22 ns

CCC1(CC)c2ccccc2-c2c1c1c(c3c2C(CC)(CC)c2cc(/C=C/c4cccs4)ccc2-3)C(CC)(CC)c2ccccc2-1
fluorescence lifetime (in C1CCOC1): 1.5 ns

CC1=CC(C)=[N+]2C1=C(c1ccc(I)cc1)c1c(C)cc(C)n1[B-]2(OCc1ccccc1)OCc1ccccc1
fluorescence lifetime (in ClC(Cl)Cl): 3.94 ns

N#Cc1ccc2nc3[nH]c(=O)[nH]c(=O)c3nc2c1
fluorescence lifetime (in ClCCCl): 0.18 ns

Cc1cc2ccc(-c3cccc4cccc(-c5ccc6cc(C)c(=O)oc6c5)c34)cc2oc1=O
fluorescence lifetime (in C1CCCCC1): 0.85 ns
fluorescence lifetime (in CC#N): 2.72 ns
fluorescence lifetime (in CO): 5.38 ns

CCOC(=O)/N=c1/oc2ccc(OC)cc2cc1C#N
fluorescence lifetime (in ClCCl): 0.3 ns

CCC1(CC)c2ccccc2-c2c1c1c(c3c2C(CC)(CC)c2cc(/C=C/c4cccs4)ccc2-3)C(CC)(CC)c2cc(/C=C/c3cccs3)ccc2-1
fluorescence lifetime (in C1CCOC1): 1.5 ns

COc1ccc(-c2cc3c(s2)c(C)cc(=O)n3C)cc1
fluorescence lifetime (in ClCCl): 0.63 ns

CC(C)(C)c1ccc2c(c1)c1cc(C(C)(C)C)ccc1n2-c1ccc(-c2ccc3c(c2)C(=O)c2ccc(-c4ccc(-n5c6ccc(C(C)(C)C)cc6c6cc(C(C)(C)C)ccc65)cc4)cc2C3=O)cc1
fluorescence lifetime (in Cc1ccccc1): 12.6 ns
fluorescence lifetime (in c1ccc2c(c1)c1ccccc1n2-c1ccc(-c2ccc(-n3c4ccccc4c4ccccc43)cc2)cc1): 33 ns

C[Si](C)(C)C#CC(C#C[Si](C)(C)C)=Cc1ccc(C=C(C#C[Si](C)(C)C)C#C[Si](C)(C)C)cc1
fluorescence lifetime (in ClC(Cl)Cl): 0.6 ns

CN(C)/C=N\c1ccc2c3c(cccc13)C(=O)c1ccccc1-2
fluorescence lifetime (in ClC(Cl)Cl): 7.96 ns

Cc1cccc(-c2c3ccccc3cc3ccccc23)n1
fluorescence lifetime (in ClCCl): 5.7 ns

COc1cc2c(cc1-c1ccc(N(C)C)cc1)Cc1c3c(c4c(c1-2)-c1cc(OC)c(-c2ccc(N(C)C)cc2)cc1C4)C(=O)N(CCC(C)C)C3=O
fluorescence lifetime (in C1CCOC1): 1.01 ns

CC1=CC(C)=[N+]2C1=C(c1c(-c3ccccn3)nc3ccccn13)c1c(C)cc(C)n1[B-]2(F)F
fluorescence lifetime (in ClCCl): 6.9 ns

CCc1ccc(-c2nc(-c3ccc(-n4c5ccccc5c5ccccc54)cc3)cc(-c3ccc(-n4c5ccccc5c5ccccc54)cc3)n2)cc1
fluorescence lifetime (in C1CCOC1): 3.72 ns
fluorescence lifetime (in CN(C)C=O): 7.1 ns
fluorescence lifetime (in Cc1ccccc1): 2.05 ns
fluorescence lifetime (in ClC(Cl)Cl): 3.57 ns

CC1(C)c2ccccc2N(c2ccc(-c3cc(C#N)c(C#N)cc3-c3ccc(N4c5ccccc5C(C)(C)c5ccccc54)cc3)cc2)c2ccccc21
fluorescence lifetime (in c1cc(-c2cccc(-n3c4ccccc4c4ccccc43)c2)cc(-n2c3ccccc3c3ccccc32)c1): 35 ns

COc1ccc(C2=Cc3c4ccccc4c4ccccc4[n+]3[B-](F)(F)O2)cc1
fluorescence lifetime (in ClC(Cl)Cl): 1.58 ns

c1ccc(-c2nc(-c3ccccc3)nc(-c3cc(-n4c5ccccc5c5ccccc54)c(-n4c5ccccc5c5ncccc54)c(-n4c5ccccc5c5ccccc54)c3)n2)cc1
fluorescence lifetime (in O=P(c1ccccc1)(c1ccccc1)c1ccc2oc3ccc(P(=O)(c4ccccc4)c4ccccc4)cc3c2c1): 20.4 ns

Cc1ccc(-c2ccc(/C=C/c3ccc(C#N)cc3)cn2)nc1
fluorescence lifetime (in CC#N): 0.6 ns

F[B-]1(F)n2c(Nc3cccc4cccnc34)ccc2C(c2ccccc2)=C2C=CC(Cl)=[N+]21
fluorescence lifetime (in C1CCCCC1): 3.21 ns
fluorescence lifetime (in Cc1ccccc1): 0.82 ns

CC(C)(C)NC(=O)c1cccc2ccc3c4ccccc4c4ccccc4c3c12
fluorescence lifetime (in ClCCl): 1.74 ns

F[B-]1(F)n2c(-c3cccs3)cc(-c3cccs3)c2N=C2C(c3cccs3)=CC(c3cccs3)=[N+]21
fluorescence lifetime (in C1CCOC1): 1.95 ns
fluorescence lifetime (in CC#N): 2.23 ns
fluorescence lifetime (in CS(C)=O): 2.31 ns
fluorescence lifetime (in Cc1ccccc1): 2.21 ns
fluorescence lifetime (in ClCCl): 2.36 ns

Clc1cnc2nn3ccccc3c2n1
fluorescence lifetime (in C1CCOC1): 6.2 ns

CC1=[O+][B-]2(OC(=O)C(=O)O2)OC(c2c3ccccc3cc3ccccc23)=C1
fluorescence lifetime (in CC#N): 2.1 ns
fluorescence lifetime (in ClC(Cl)(Cl)Cl): 1.2 ns

c1ccc(-c2cc3cc4cccc5c(-c6ccccc6)cc6cc7cccc2c7c3c6c45)cc1
fluorescence lifetime (in ClCCl): 4.21 ns

From the Deep4Chem optical property database
